Assays:
Type in all cases: in vivo
[1] = tested on: Abcd1−/Abcd2−/− mice; experiment: Treadmill test; details: four months of treatment starting at 12 months of age, belt speed 30 cm/sec, slope 20°
Procedure: (§1) Treadmill apparatus consisted of a variable speed belt varying in terms of speed and slope. An electrified grid was located to the rear of the belt on which footshocks (0.2 mA) were administered whenever the mice fell off the belt. The treadmill apparatus (Panlab, Barcelona, Spain) consisted of a belt (50 cm long and 20 cm wide) varying in terms of speed (5 to 150 cm/s) and slope (0-25°) enclosed in a plexiglass chamber. The latency to falling off the belt (time of shocks in seconds) and the number of received shocks were measured. The mice were placed on the top of the already moving belt facing away from the electrified grid and in the direction opposite to the movement of the belt. Thus, to avoid the footshocks, the mice had to locomote forward.
(§2) The mice were evaluated in five trials in a single-day session. In the first trial, the belt speed was set at 20 cm/s and the inclination at 50. […] When the mice were subjected to consecutive trials at increasing speeds up to 20 cm/sec and a 20° slope, no differences were detected from one session to another between the WT and Abcd1^−/Abcd2^−/− mice. However, when the belt speed was increased up to 30 cm/sec and the slope was 20°, differences were detected between the Abcd1^−/Abcd2^−/− mice and the controls because this task requires greater coordination. […]

[2] = tested on: Abcd1−/Abcd2−/− mice; experiment: Horizontal bar cross test; details: four months of treatment starting at 12 months of age
Procedure: The bar cross test was carried out using a wooden bar of 100 cm in length and 2 cm in width (diameter). This bar is just wide enough for mice to stand on with their hind feet hanging over the edge such that any slight lateral misstep will result in a slip. […] The mice were put on one end of the bar and expected to cross to the other end. To eliminate the novelty of the task as a source of slips, all animals were given four trials on the bar the day before and at the beginning of the testing session. In an experimental session, the number of hind limb lateral slips and falls from the bar was counted on four consecutive trials. If an animal fell, it was placed back on the bar at the point at which it fell and was allowed to complete the task. The bar was cleaned with ethanol after each animal.

[3] = tested on: Abcd1−/Abcd2−/− mice; experiment: Locomotor testing overall (treadmill and bar cross), disease progression in X-ALD mice; details: four months of treatment
Procedure: as §1, with “Thus, to avoid the footshocks, the mice had to locomote forward.” left out
as §2, with “session.” for “session. In the first trial, the belt speed was set at 20 cm/s and the inclination at 50.”
The bar cross test was carried out using a wooden bar of 100 cm in length and 2 cm in width (diameter). […] In an experimental session, the number of hind limb lateral slips and falls from the bar was counted on four consecutive trials. […]

SMILES | ratio between the time of shocks and the number of shocks (locomotor deficit index) [1] | number of slips [2] | time necessary to cross the bar [2] | progression of the disease in X-ALD mice [3]
CCCCCCCCc1ccc(CCC(N)(CO)CO)cc1 [Fingolimod] | indistinguishable from the WT ratio | normalized | normalized | arrested the progression of the disease
CCc1cc(/C(C)=N/OCc2ccc(C3CCCCC3)c(C(F)(F)F)c2)ccc1CN1CC(C(=O)O)C1 [Siponimod] | indistinguishable from the WT ratio | normalized | normalized | arrested the progression of the disease

— patent US20190010535A1, “METHODS AND COMPOSITIONS FOR THE DIAGNOSIS AND FOR THE TREATMENT OF ADRENOLEUKODYSTROPHY” (FUNDACIÓ INSTITUT D'INVESTIGACIÓ BIOMÈDICA DE BELLVITGE …, priority 2015, published 2019)
